Results published in patent US20220362386A1, “LIQUID COMPOSITIONS COMPRISING A LEVODOPA AMINO ACID CONJUGATE AND USES THEREOF” (NeuroDerm, Ltd., priority 2019, published 2022).
Structures can show the parent of a compound that is named as a salt. Where two headings read alike, the source gives them in different places. Non-standard residues stand in square brackets, D forms with d. Residues, ends and D or L forms follow the SMILES beside them. Dopa = N[C@@H](Cc1ccc(O)c(O)c1)C(=O)O

Key:
[1] = In-vitro metabolism of LDAA compounds using liver microsomes; format: in vitro ADME, human; conditions: for half-life at 0.1 μM / microsomal CLint at 0.1 μM: both sexes, human, pooled human liver microsomes; for half-life at 0.1 μM: pH 7.4, 1.0E−07M, 0.1 mg/mL microsomal protein; for microsomal CLint at 0.1 μM: pH 7.4, calculated from the half-life; for microsomal CLint at 0.1 μM / % Compound Remaining 1st / % Compound Remaining 2nd / % Compound Remaining Mean: 1.0E−07M
Experimental: The stability of test compounds in pooled human liver microsomes was determined on 96-well plates, wherein the test compounds were quantified at five time points by HPLC-MS/MS analysis. The assay matrix included mixed gender and a pool of 50 human liver microsomes, wherein the final microsomal protein concentration was 0.1 mg/mL. The test concentration was 0.1 μM with 0.01% DMSO, 0.25% acetonitrile and 0.25% methanol.
Each test compound was pre-incubated for five minutes with pooled liver microsomes in phosphate buffer (pH 7.4) in a 37° C. shaking water-bath. The reaction was initiated by adding a nicotinamide adenine dinucleotide phosphate (NADPH)-generating system and incubating for 0, 15, 30, 45, and 60 min. The reaction was stopped by transferring the incubation mixture to acetonitrile/methanol. Samples were then mixed and centrifuged, wherein the supernatants were used for HPLC-MS/MS analysis.
In each assay the four reference compounds propranolol, imipramine, verapamil and terfenadine were tested, wherein the propranolol and the imipramine are known to be relatively stable, while the verapamil and the terfenadine are known to be readily metabolized in human liver microsomes.
All samples were analyzed by HPLC-MS/MS using selected reaction monitoring. The HPLC system consisted of a binary LC pump with autosampler, a C-18 column, and a gradient. The conditions were adjusted when necessary.
Peak areas corresponding to the test compound were recorded. The amount of each compound remaining was calculated by comparing the peak area at each time point to time zero. The half-life is calculated from the slope of the initial linear range of the logarithmic curve of compound remaining (%) vs. time, assuming first order kinetics. In addition, the intrinsic clearance (Clint) was calculated from the half-life using the following equation:
Clint(μL/min/mg protein)=0.693/(t1/2×protein concentration)
The results of the in-vitro human liver microsome metabolism tests of various LDAA compounds (10^−7M), in their TFA salt forms, are provided in FIG. 1 and in Table 17, which presents the % of the compound remaining at times 0, 15, 30, 45 and 60 minutes, two half-life measurements and the Clint, calculated as detailed above.

[2] = Human blood stability test; format: in vitro ADME; parameters: key: slope of % decrease of remaining compound over time; higher = faster metabolism; conditions: slope of the percentage decrease of remaining compound; substrate 10 μM; 0-60 minutes
Experimental: The stability of several LDAA compounds in human blood was tested. The substrate concentration was 10 μM and the incubation time 0, 5, 15, 30 and 60 minutes.
The results are described in Table 19, wherein the results describe the Ke, i.e., the slope of the percentage decrease of the remaining amount of the compound, measured at each of the above time points, such that the higher the Ke the faster the metabolism.

in vitro = conditions: human
Experimental: Caco-2 cells are human intestinal epithelial cells derived from a colorectal adenocarcinoma.
The assays are performed in both the apical to basolateral (A-B) and the B-A direction. The test compound is prepared at 10 μM in HBSS-HEPES (pH 7.4) with a final DMSO concentration of 1%. The working solution is centrifuged, and the supernatant is added to the donor side. The assay plate is incubated at 37° C. with gentle shaking for 60 min or 40 min for the A-B or B-A assay, respectively. For Pgp substrate assessment, the assays are run with and without 100 μM verapamil on both the A and B sides. For BCRP substrate assessment, the assays are run with and without 10 μM Ko143 on both the A and B sides. For MRP2 substrate assessment, the assays are run with and without 100 μM MK571 on both the A and B sides. Samples are aliquoted from the donor side at time zero and the end point, and from the receiver side at the end point.
Propranolol (highly permeable), labetalol (moderately permeable), ranitidine (poorly permeable), and colchicine (P-glycoprotein substrate), estrone-3-sulfate (BCRP substrate), or CDCF (MRP2 substrate) are included in each assay.
Samples are analyzed by HPLC-MS/MS using selected reaction monitoring. The HPLC system consists of a binary LC pump with an autosampler, a C-18 column, and a gradient. Conditions may be adjusted when necessary.
Fluorescein permeability is assessed in the A-B direction at pH 7.4 on both sides after the permeability assay with the test compound. The cell monolayer with a fluorescein permeability of less than 1.5×10−6 cm/s is considered intact.
The apparent permeability coefficient (Papp) of the test compound and its recovery are calculated as follows: […]
A is the surface area of the cell monolayer (0.11 cm^2). C is concentration of the test compound, expressed as peak area. D denotes donor and R is receiver. 0, mid, and end denote time zero, mid-point, and end of the incubation. Δt is the incubation time. V is the volume of the donor or receiver.
The permeability capabilities of the several LDAA compounds, in their TFA salt form, were determined using the Caco-2 B-A method.

[3] = read-out: Half-Life (minute) 1st
[4] = read-out: Half-Life (minute) 2nd
[5] = read-out: Half-Life (minute) Mean
[6] = Caco-2, pH 7.4, Percent Recovery 1st
[7] = Caco-2, pH 7.4, Percent Recovery 2nd
[8] = Caco-2, pH 7.4, Percent Recovery Mean
[9] = Caco-2, pH 7.4, Permeability 1st
[10] = Caco-2, pH 7.4, Permeability 2nd
[11] = Caco-2, pH 7.4, Permeability Mean

Row | half-life at 0.1 μM [1, 3] | half-life at 0.1 μM [1, 4] | half-life at 0.1 μM [1, 5] | microsomal CLint at 0.1 μM [1] | % Compound Remaining 1st ([1]; incubation time 0 minutes) | % Compound Remaining 2nd ([1]; incubation time 0 minutes) | % Compound Remaining Mean ([1]; incubation time 0 minutes) | % Compound Remaining 1st ([1]; incubation time 15 minutes) | % Compound Remaining 2nd ([1]; incubation time 15 minutes) | % Compound Remaining Mean ([1]; incubation time 15 minutes) | % Compound Remaining 1st ([1]; incubation time 30 minutes) | % Compound Remaining 2nd ([1]; incubation time 30 minutes) | % Compound Remaining Mean ([1]; incubation time 30 minutes) | % Compound Remaining 1st ([1]; incubation time 45 minutes) | % Compound Remaining 2nd ([1]; incubation time 45 minutes) | % Compound Remaining Mean ([1]; incubation time 45 minutes) | % Compound Remaining 1st ([1]; incubation time 60 minutes) | % Compound Remaining 2nd ([1]; incubation time 60 minutes) | % Compound Remaining Mean ([1]; incubation time 60 minutes) | recovery at 40 min, 10 μM (in vitro; [6]) | Compound | further results
1 | 74.4 min | 77.3 min | > 60 min | < 116 µL/min/mg | 100% | 100% | 100% | 92.8% | 96.4% | 95% | 79.9% | 88.6% | 84% | 66.1% | 59.7% | 63% | 58.9% | 64.9% | 62% | 85% | NC(=O)C[C@H](NC(=O)[C@@H](N)Cc1ccc(O)c(O)c1)C(=O)O [LD-Asn TFA salt, Levodopa Asparagine TFA Salt] (H-[Dopa]-Asn-OH) | Ke [2]: 0.0038; recovery at 40 min, 10 μM (in vitro; [7]): 84%; recovery at 40 min, 10 μM (in vitro; [8]): 85%; Papp B→A at 40 min, 10 μM (in vitro; [9]): 0.42 ×10⁻⁶ cm/s; Papp B→A at 40 min, 10 μM (in vitro; [10]): 0.39 ×10⁻⁶ cm/s; Papp B→A at 40 min, 10 μM (in vitro; [11]): 0.4 ×10⁻⁶ cm/s
2 | 64 min | 61.4 min | > 60 min | < 116 µL/min/mg | 100% | 100% | 100% | 108.6% | {96.6} % | 109% | 115.2% | 92.2% | 104% | 70.5% | 63.1% | 67% | 55.1% | 51.6% | 53% | 71% | N[C@@H](Cc1ccc(O)c(O)c1)C(=O)N[C@@H](Cc1c[nH]c2ccccc12)C(=O)O [LD-Trp TFA salt, Levodopa Tryptophan] (H-[Dopa]-Trp-OH) | recovery at 40 min, 10 μM (in vitro; [7]): 82%; recovery at 40 min, 10 μM (in vitro; [8]): 77%; Papp B→A at 40 min, 10 μM (in vitro; [9]): 0.01 ×10⁻⁶ cm/s; Papp B→A at 40 min, 10 μM (in vitro; [10]): 0.01 ×10⁻⁶ cm/s; Papp B→A at 40 min, 10 μM (in vitro; [11]): < 0.01 ×10⁻⁶ cm/s

More lines, now with the values behind:

Row | Compound | half-life at 0.1 μM [1, 3] | half-life at 0.1 μM [1, 4] | half-life at 0.1 μM [1, 5] | microsomal CLint at 0.1 μM [1] | % Compound Remaining 1st ([1]; incubation time 0 minutes) | % Compound Remaining 2nd ([1]; incubation time 0 minutes) | % Compound Remaining Mean ([1]; incubation time 0 minutes) | % Compound Remaining 1st ([1]; incubation time 15 minutes) | % Compound Remaining 2nd ([1]; incubation time 15 minutes) | % Compound Remaining Mean ([1]; incubation time 15 minutes) | % Compound Remaining 1st ([1]; incubation time 30 minutes) | % Compound Remaining 2nd ([1]; incubation time 30 minutes) | % Compound Remaining Mean ([1]; incubation time 30 minutes) | % Compound Remaining 1st ([1]; incubation time 45 minutes) | % Compound Remaining 2nd ([1]; incubation time 45 minutes) | % Compound Remaining Mean ([1]; incubation time 45 minutes) | % Compound Remaining 1st ([1]; incubation time 60 minutes) | % Compound Remaining 2nd ([1]; incubation time 60 minutes) | % Compound Remaining Mean ([1]; incubation time 60 minutes) | recovery at 40 min, 10 μM (in vitro; [6]) | further results
3 | N=C(N)NCCC[C@H](NC(=O)[C@@H](N)Cc1ccc(O)c(O)c1)C(=O)O [LD-Arg TFA salt, Levodopa Arginine TFA Salt] | 42.9 min | 40.5 min | 42 min | 166 µL/min/mg | 100% | 100% | 100% | 109.7% | 111.8% | 111% | 84.2% | 90.9% | 88% | 70% | {52.4} % | 70% | 37.3% | 38.6% | 38% | 82% | Ke [2]: 0.0919; recovery at 40 min, 10 μM (in vitro; [7]): 89%; recovery at 40 min, 10 μM (in vitro; [8]): 85%; Papp B→A at 40 min, 10 μM (in vitro; [9]): 0.03 ×10⁻⁶ cm/s; Papp B→A at 40 min, 10 μM (in vitro; [10]): 0.02 ×10⁻⁶ cm/s; Papp B→A at 40 min, 10 μM (in vitro; [11]): < 0.03 ×10⁻⁶ cm/s
4 | N[C@@H](Cc1ccc(O)c(O)c1)C(=O)N[C@@H](CC(=O)O)C(=O)O [LD-Asp TFA salt, Levodopa Aspartic Acid] (H-[Dopa]-Asp-OH) |  |  |  |  |  |  |  |  |  |  |  |  |  |  |  |  |  |  |  |  | Ke [2]: 0.0014
5 | N[C@@H](Cc1ccc(O)c(O)c1)C(=O)O [LD (control), L-3,4-dihydroxyphenylalanine, reference compound] | 116 min | 131 min | > 60 min | < 116 µL/min/mg | 100% | 100% | 100% | 102.5% | 97.8% | 100% | 93.2% | 89.3% | 91% | 80.1% | 78% | 79% | 72.3% | 75.2% | 74% | 101% | recovery at 40 min, 10 μM (in vitro; [7]): 92%; recovery at 40 min, 10 μM (in vitro; [8]): 96%; Papp B→A at 40 min, 10 μM (in vitro; [9]): 0.38 ×10⁻⁶ cm/s; Papp B→A at 40 min, 10 μM (in vitro; [10]): 0.41 ×10⁻⁶ cm/s; Papp B→A at 40 min, 10 μM (in vitro; [11]): < 0.4 ×10⁻⁶ cm/s
6 | NC(=O)CC[C@H](NC(=O)[C@@H](N)Cc1ccc(O)c(O)c1)C(=O)O [LD-Gln TFA salt, Levodopa Glutamine TFA Salt] (H-[Dopa]-Gln-OH) | 155 min | 158 min | > 60 min | < 116 µL/min/mg | 100% | 100% | 100% | 103.4% | {121.2% | 103% | 68.2% | {139.0% | 68% | 81.8% | 94.1% | 88% | 80.4% | 72.8% | 77% | 81% | recovery at 40 min, 10 μM (in vitro; [7]): 92%; recovery at 40 min, 10 μM (in vitro; [8]): 87%; Papp B→A at 40 min, 10 μM (in vitro; [9]): 1.01 ×10⁻⁶ cm/s; Papp B→A at 40 min, 10 μM (in vitro; [10]): 0.79 ×10⁻⁶ cm/s; Papp B→A at 40 min, 10 μM (in vitro; [11]): 0.9 ×10⁻⁶ cm/s
